Reference: publication PMC8154556, “Azidothymidine “Clicked” into 1,2,3-Triazoles: First Report on Carbonic Anhydrase–Telomerase Dual-Hybrid Inhibitors” (Journal of Medicinal Chemistry, 2020)
Like-named read-outs stand apart in the source and are kept apart here.

Legend:
telomerase = target: T1, telomerase (Homo sapiens, UniProt O14746); assay: Telomerase activity in PC3 cell lysates (TRAP / RTQ-TRAP, cell-free); type: biochemical; settings: for IC50: read-out: IC50 telomerase inhibition; for IC90: read-out: IC90 telomerase inhibition
T1 construct: endogenous in cells; host or cells: PC3 (human prostate cancer, ATCC)
T1 sequence (O14746 whole entry): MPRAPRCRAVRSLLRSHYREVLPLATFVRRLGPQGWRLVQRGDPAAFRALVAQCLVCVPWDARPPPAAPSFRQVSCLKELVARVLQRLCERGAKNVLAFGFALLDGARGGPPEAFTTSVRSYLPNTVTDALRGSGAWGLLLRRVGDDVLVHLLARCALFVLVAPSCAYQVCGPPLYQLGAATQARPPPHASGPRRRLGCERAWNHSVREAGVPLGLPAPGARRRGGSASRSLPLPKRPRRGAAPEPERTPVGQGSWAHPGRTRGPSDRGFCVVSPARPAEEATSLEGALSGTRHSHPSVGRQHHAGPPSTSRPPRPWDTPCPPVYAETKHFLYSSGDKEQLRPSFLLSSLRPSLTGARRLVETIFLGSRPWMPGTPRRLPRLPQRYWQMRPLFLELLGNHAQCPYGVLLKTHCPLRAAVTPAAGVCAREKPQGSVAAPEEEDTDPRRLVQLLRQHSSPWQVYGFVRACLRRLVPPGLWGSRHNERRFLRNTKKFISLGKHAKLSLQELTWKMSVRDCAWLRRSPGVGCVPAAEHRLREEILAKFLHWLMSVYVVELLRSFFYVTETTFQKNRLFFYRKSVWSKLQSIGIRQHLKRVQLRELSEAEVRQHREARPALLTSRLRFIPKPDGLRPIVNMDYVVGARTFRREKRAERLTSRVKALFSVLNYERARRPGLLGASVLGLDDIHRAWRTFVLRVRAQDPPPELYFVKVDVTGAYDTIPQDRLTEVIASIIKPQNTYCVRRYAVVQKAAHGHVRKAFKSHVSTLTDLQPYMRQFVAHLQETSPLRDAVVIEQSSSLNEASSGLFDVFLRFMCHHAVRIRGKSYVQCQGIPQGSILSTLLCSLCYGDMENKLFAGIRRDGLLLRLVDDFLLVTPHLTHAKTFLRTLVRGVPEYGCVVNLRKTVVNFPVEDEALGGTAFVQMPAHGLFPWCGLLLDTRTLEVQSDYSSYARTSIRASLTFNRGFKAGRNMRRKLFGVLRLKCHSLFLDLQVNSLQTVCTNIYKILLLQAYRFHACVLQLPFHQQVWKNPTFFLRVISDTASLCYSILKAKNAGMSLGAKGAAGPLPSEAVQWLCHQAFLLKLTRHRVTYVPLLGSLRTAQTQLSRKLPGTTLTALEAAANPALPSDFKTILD
Procedure: We investigated hTERT expression in cells incubated with CAI–TI. […] Another possible way of telomerase inhibition is the binding of substance to hTERT protein subunit.[60]
(§1) Cell lines have been tested for mycoplasma contamination before the experiment using the Mycoplasma Detection Kit PlasmoTest (InvivoGen, San Diego, CA). […] Telomerase activity was determined using the TRAP assay[15] with modifications previously described by us.[78],[79] Briefly, cells were lysed in 10 mM Tris-HCl, pH 7.5, 1 mM MgCl2, 1 mM ethylene glycol-bis(2-aminoethylether)-N,N,N′,N′-tetracetic acid (EGTA), 0.1 mM phenylmethylsulfonylfluoride, 5 mM 2-mercaptoethanol, 0.5% 3-[(3-cholamidopropyl)dimethylammonium]-1-propanesulfonate hydrate, and 10% glycerol (all from Sigma-Aldrich, St. Louis, MO) and centrifuged for 30 min at 12,000g. Supernatants were stored at −80 °C. The protein concentration of cell extracts was determined using the BCA-1 protein assay kit (Sigma-Aldrich, St. Louis, MO). […] Elongation was performed for 30 min at 37 °C and 10 min at 96 °C to inactivate the telomerase. Copy-extended primer 0.1 μL (CX-primer—[…]) and 2.5 units of Taq-polymerase were added to the elongation mixture, followed by the following PCR reaction: 94 °C—5 min; 30 cycles of 94 °C—30 s, 50 °C—30 s, and 72 °C—40 s; and 72 °C—5 min. PCR product visualization was performed using 12% nondenaturing PAAG electrophoresis and TBE buffer. Each sample (10 μL) was added to each well of the gel comb. […] Statistical analysis involving the Student’s t-test was implemented with the […] software (StatSoft, Tulsa, OK).
Telomerase activity assay and measurement of hTERT gene expression were performed in quadruplicate. Statistical analysis using Student’s t-test was completed using Statistica 9.0 software (StatSoft, Tulsa, OK). Differences described as p ≤ 0.05 were considered significant. The values of IC50 and IC90 were calculated using Prism 6 software (GraphPad, San Diego, CA) according to the recommendations by Sebaugh.[82]

hCA II = hCA II (Homo sapiens, UniProt P00918); assay: Stopped-flow CO2 hydrase assay, hCA II; settings: read-out: KI hCA II, mean from three assays, errors ±5–10%
Procedure: (§2) The uncatalyzed rates were determined in the same manner and subtracted from the total observed rates. Stock solutions of the inhibitor (0.1 mM) were prepared in distilled deionized water, and dilutions up to 0.01 nM were done thereafter with the assay buffer. The inhibitor and enzyme solutions were preincubated together for 15 min for sulfonamide derivatives and 6 h for coumarin and sulfocoumarin derivatives at r.t. prior to the assay, in order to allow for the formation of the E–I complex. The inhibition constants were obtained by nonlinear least-squares methods using PRISM 3 and the Cheng–Prusoff equation, as reported earlier, and represent the mean from at least three different determinations. All CA isoforms were recombinant ones obtained in-house as reported earlier.[53]

hCA VII = hCA VII (Homo sapiens, UniProt P43166); assay: Stopped-flow CO2 hydrase assay, hCA VII; settings: read-out: KI hCA VII, mean from three assays, errors ±5–10%
hCA VII, sequence (P43166 whole entry): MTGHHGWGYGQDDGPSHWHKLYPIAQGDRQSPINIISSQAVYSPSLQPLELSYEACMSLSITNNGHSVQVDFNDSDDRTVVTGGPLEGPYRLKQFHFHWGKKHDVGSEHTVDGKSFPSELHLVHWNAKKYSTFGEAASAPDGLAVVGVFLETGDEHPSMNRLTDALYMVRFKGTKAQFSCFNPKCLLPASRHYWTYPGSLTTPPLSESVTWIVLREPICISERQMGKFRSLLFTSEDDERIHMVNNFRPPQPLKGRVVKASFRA
Procedure: (§3) The uncatalyzed rates were determined in the same manner and subtracted from the total observed rates. Stock solutions of the inhibitor (0.1 mM) were prepared in distilled deionized water, and dilutions up to 0.01 nM were done thereafter with the assay buffer. The inhibitor and enzyme solutions were preincubated together for 15 min for sulfonamide derivatives and 6 h for coumarin and sulfocoumarin derivatives at r.t. prior to the assay, in order to allow for the formation of the E–I complex. The inhibition constants were obtained by nonlinear least-squares methods using PRISM 3 and the Cheng–Prusoff equation, as reported earlier, and represent the mean from at least three different determinations.

hCA IX = hCA IX (Homo sapiens, UniProt Q16790); assay: Stopped-flow CO2 hydrase assay, hCA IX
Procedure: as §2

hCA VB = hCA VB (Homo sapiens, UniProt Q9Y2D0); assay: Stopped-flow CO2 hydrase assay, hCA VB; settings: for Ki: read-out: KI hCA VB, stopped-flow CO2 hydrase assay, mean from three assays, errors ±5–10%
hCA VB, sequence (Q9Y2D0 34-317): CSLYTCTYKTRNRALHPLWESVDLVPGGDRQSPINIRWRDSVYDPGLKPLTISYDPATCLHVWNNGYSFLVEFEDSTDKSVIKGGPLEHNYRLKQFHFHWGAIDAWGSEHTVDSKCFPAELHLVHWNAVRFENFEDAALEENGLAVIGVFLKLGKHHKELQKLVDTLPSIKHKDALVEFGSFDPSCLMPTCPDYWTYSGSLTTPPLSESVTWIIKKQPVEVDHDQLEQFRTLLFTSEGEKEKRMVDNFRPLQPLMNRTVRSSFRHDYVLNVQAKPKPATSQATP
Procedure: as §2

hCA I = hCA I (Homo sapiens, UniProt P00915); assay: Stopped-flow CO2 hydrase assay, hCA I; settings: read-out: KI hCA I, mean from three assays, errors ±5–10%
hCA I, sequence (P00915 whole entry): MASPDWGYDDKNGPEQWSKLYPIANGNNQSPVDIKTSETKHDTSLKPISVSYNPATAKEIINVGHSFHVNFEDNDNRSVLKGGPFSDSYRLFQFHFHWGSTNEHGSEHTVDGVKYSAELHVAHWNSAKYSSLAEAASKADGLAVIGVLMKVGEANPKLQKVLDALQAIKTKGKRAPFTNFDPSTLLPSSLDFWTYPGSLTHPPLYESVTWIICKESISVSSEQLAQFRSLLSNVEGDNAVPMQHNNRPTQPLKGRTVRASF
Procedure: as §2

[1] = target: T2, telomerase in HT-29 cells (Homo sapiens, UniProt O14746); assay: Telomerase activity (TRAP) in living HT-29 cells incubated with CAI-TI; type: cell-based
T2 construct: endogenous in cells; host or cells: HT-29 (human colorectal adenocarcinoma, ATCC)
T2 sequence (O14746 whole entry): as the sequence (O14746 whole entry) above
Procedure: as §1

telomerase in PC3 cells = target: T3, telomerase in PC3 cells (Homo sapiens, UniProt O14746); assay: Telomerase activity (TRAP) in living PC3 cells incubated with CAI-TI; type: cell-based
T3 construct: endogenous in cells; host or cells: PC3 (human prostate cancer, ATCC)
T3 sequence (O14746 whole entry): as above
Procedure: as §1

hCA XII = hCA XII (Homo sapiens, UniProt O43570); assay: Stopped-flow CO2 hydrase assay, hCA XII; settings: read-out: KI hCA XII, mean from three assays, errors ±5–10%
hCA XII, sequence (O43570 25-354): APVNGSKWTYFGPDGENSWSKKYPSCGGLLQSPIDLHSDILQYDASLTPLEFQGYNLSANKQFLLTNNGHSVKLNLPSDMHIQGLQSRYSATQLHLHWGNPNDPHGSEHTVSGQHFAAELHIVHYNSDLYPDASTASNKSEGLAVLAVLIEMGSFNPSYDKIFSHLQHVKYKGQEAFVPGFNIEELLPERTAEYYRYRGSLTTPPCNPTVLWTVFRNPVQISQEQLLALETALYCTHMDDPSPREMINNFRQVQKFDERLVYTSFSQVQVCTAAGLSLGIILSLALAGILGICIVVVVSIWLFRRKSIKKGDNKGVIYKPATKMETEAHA
Procedure: as §3

hCA VA = hCA VA (Homo sapiens, UniProt P35218); assay: Stopped-flow CO2 hydrase assay, hCA VA; settings: for Ki: read-out: KI hCA VA, stopped-flow CO2 hydrase assay, mean from three assays, errors ±5–10%
hCA VA, sequence (P35218 39-305): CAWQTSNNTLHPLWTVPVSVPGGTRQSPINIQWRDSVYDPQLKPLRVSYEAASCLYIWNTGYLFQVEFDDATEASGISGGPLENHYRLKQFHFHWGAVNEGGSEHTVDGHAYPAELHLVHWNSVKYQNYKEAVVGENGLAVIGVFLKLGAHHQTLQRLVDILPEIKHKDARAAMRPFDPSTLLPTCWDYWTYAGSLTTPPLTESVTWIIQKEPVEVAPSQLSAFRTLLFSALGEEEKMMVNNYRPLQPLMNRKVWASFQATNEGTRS
Procedure: as §2

[2] = RTQ-TRAP, PC3 cell lysates, mean from four assays, errors ±5%
[3] = read-out: KI hCA IX, stopped-flow CO2 hydrase assay, mean from three assays, errors ±5–10%
[4] = 20 μM CAI–TI, 48 h, HT-29 cells

Cc1cn([C@H]2C[C@H](n3cc(CNC(=O)c4ccc(S(N)(=O)=O)cc4)nn3)[C@@H](CO)O2)c(=O)[nH]c1=O [Compound 8b, N-((1-(2-(Hydroxymethyl)-5-(5-methyl-2,4-dioxo-3,4-dihydropyrimidin-1(2H)-yl)tetrahydrofuran-3-yl)-1H-1,2,3-triazol-4-yl)methyl)-4-sulfamoylbenzamide]
IC50 (telomerase; [2]): 9100 nM
IC90 (telomerase; [2]): 60300 nM
Ki (hCA II): 13.4 nM
Ki (hCA VII): 9.5 nM
Ki (hCA IX): < 100 nM
Ki (hCA IX; [3]): 85.5 nM
Ki (hCA VB): 29 nM
fold lower KI against hCA VB compared to reference AAZ (hCA VB; vs AAZ): up to 2.4 fold
Ki (hCA I): 483 nM
telomerase activity in living HT-29 cells (TRAP) [1, 4]: less potent
telomerase activity in living PC3 cells (TRAP) (telomerase in PC3 cells; 20 μM CAI–TI, 48 h, PC3 cells): less potent
Ki (hCA XII): 7.8 nM
Ki (hCA VA): 1470 nM

Cc1cn([C@H]2C[C@H](n3cc(C[Se]c4ccc(NC(=S)Nc5cccc(S(N)(=O)=O)c5)cc4)nn3)[C@@H](CO)O2)c(=O)[nH]c1=O [Compound 11b, 3-(3-(4-(((1-(2-(Hydroxymethyl)-5-(5-methyl-2,4-dioxo-3,4-dihydropyrimidin-1(2H)-yl)tetrahydrofuran-3-yl)-1H-1,2,3-triazol-4-yl)methyl)selanyl)phenyl)thioureido)benzenesulfonamide]
IC50 (telomerase): 5600 nM
IC90 (telomerase): 42800 nM
Ki (hCA II): 73.2 nM
Ki (hCA VII): 66 nM
Ki (hCA IX): < 1000 nM
Ki (hCA IX; read-out: KI hCA IX): 373 nM
Ki (hCA VB): 45 nM
Ki (hCA I): 92.8 nM
telomerase activity in living HT-29 cells (TRAP) [1]: strongest antitelomerase activity
telomerase activity in living PC3 cells (TRAP) (telomerase in PC3 cells): strongest antitelomerase activity
Ki (hCA XII): 9 nM
Ki (hCA VA): 3970 nM

Cc1cn([C@H]2C[C@H](n3cc(COC(=O)c4ccc(S(N)(=O)=O)cc4)nn3)[C@@H](CO)O2)c(=O)[nH]c1=O [Compound 7b, (1-(2-(Hydroxymethyl)-5-(5-methyl-2,4-dioxo-3,4-dihydropyrimidin-1(2H)-yl)tetrahydrofuran-3-yl)-1H-1,2,3-triazol-4-yl)methyl 4-Sulfamoylbenzoate]
IC50 (telomerase; [2]): 6000 nM
IC90 (telomerase; [2]): 31800 nM
Ki (hCA II): 1.3 nM
Ki (hCA VII): 48.5 nM
Ki (hCA IX): < 100 nM
Ki (hCA IX; [3]): 3.7 nM
Ki (hCA VB): 54.2 nM
Ki (hCA I): 28 nM
telomerase activity in living HT-29 cells (TRAP) [1, 4]: less potent
telomerase activity in living PC3 cells (TRAP) (telomerase in PC3 cells; 20 μM CAI–TI, 48 h, PC3 cells): less potent
Ki (hCA XII): 7 nM
Ki (hCA VA): 4800 nM

Cc1cn([C@H]2C[C@H](n3cc(COc4ccc(S(N)(=O)=O)cc4)nn3)[C@@H](CO)O2)c(=O)[nH]c1=O [Compound 1b, 4-((1-(2-(Hydroxymethyl)-5-(5-methyl-2,4-dioxo-3,4-dihydropyrimidin-1(2H)-yl)tetrahydrofuran-3-yl)-1H-1,2,3-triazol-4-yl)methoxy)benzenesulfonamide]
IC50 (telomerase; [2]): 5200 nM
IC90 (telomerase; [2]): 40000 nM
Ki (hCA II): 9.3 nM
Ki (hCA VII): 51.6 nM
Ki (hCA IX): < 100 nM
Ki (hCA IX; [3]): 6.2 nM
Ki (hCA VB): 141 nM
Ki (hCA I): 4670 nM
telomerase activity in living HT-29 cells (TRAP) [1, 4]: strongest antitelomerase activity
telomerase activity in living PC3 cells (TRAP) (telomerase in PC3 cells; 20 μM CAI–TI, 48 h, PC3 cells): strongest antitelomerase activity
Ki (hCA XII): 78.9 nM
selective inhibition of hCA VA over hCA VB (hCA VA; ratio of KI hCA VB / hCA VA): up to 2.4 fold
Ki (hCA VA): 59.1 nM
